Measurements: paper PMC7284125, “Identification of annotated bioactive molecules that impair motility of the blood fluke Schistosoma mansoni” (International Journal for Parasitology: Drugs and Drug …, 2020)

System: S. mansoni schistosomulae
Assay: Phenotypic primary screen assay on schistosomulae (phenotype; viability by methylene blue dye exclusion)
Type: cell-based, Schistosoma mansoni
Settings: three-day-old schistosomulae, 10 μM, 24 h; estimated 5 days post compound exposure
Summary of the method: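 Parasites lacking contraction/relaxation cycles and showing dark internal granulations counted as dead. Movement and body shape were compared with DMSO-treated controls under a stereo microscope at 24 h and at five days of exposure. Larvae came from infected snails shed under light for 2 h at 32 °C.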

Row | Compound | Phenotype
1 | O=C1Cc2cc(CCN3CCN(c4nsc5ccccc45)CC3)c(Cl)cc2N1 [Ziprasidone] | dark, granulated
2 | C#C[C@]1(O)C=C[C@H]2[C@@H]3CCC4=CC(=O)CC[C@@H]4[C@H]3CC[C@@]21CC [Gestodene] | granulated
3 | CN(C)CCC[C@@]1(c2ccc(F)cc2)OCc2cc(C#N)ccc21 [Escitalopram] | abnormal morphology
4 | COC(=O)C1=CCCN(C)C1 [Arecoline] | round body, blebbing
5 | C=C1C(=O)O[C@@H]2/C=C(\C)CC/C=C(\C)CC[C@@H]12 [Costunolide] | big, granulated

System: S. mansoni schistosomulae
Assay: Motility assay on schistosomulae (pixel displacement, relative to DMSO control)
Type: cell-based, Schistosoma mansoni
Settings: Arecoline and analogs, 24h, D1, 10 µM
Summary of the method: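 Mechanically transformed S. mansoni schistosomulae (200/well) in Opti-MEM with 5% dialyzed FBS were exposed to compounds at 1 and 10 μM for 24 h at 37 °C, 5% CO2. Motility filmed at 10 frames/s for 1 min and quantified by pixel displacement relative to DMSO-treated controls.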

Row | Compound | Fractional motility
6 | COC(=O)C1=CCCN(C)C1 [Arecoline] | -0.93

Same assay, conditions: Arecoline and analogs, 24h, D5, 10 µM

Row | Compound | Fractional motility
7 | COC(=O)C1=CCCN(C)C1 [Arecoline] | 1.49

Same assay, conditions: Schistosoma mansoni, 120 h; Arecoline and analogs, 24h, D5, 1 µM; read-out: Fractional motility

Row | Compound | activity at 1 µM
8 | COC(=O)C1=CCCN(C)C1 [Arecoline] | 122%

Same assay, conditions: Schistosoma mansoni, 120 h; schistosomulae, secondary screen, 24h exposure, read at D5, 1 µM; read-out: Fractional motility

Row | Compound | activity at 1 µM
9 | O=C1Cc2cc(CCN3CCN(c4nsc5ccccc45)CC3)c(Cl)cc2N1 [Ziprasidone] | -73%
10 | C#C[C@]1(O)C=C[C@H]2[C@@H]3CCC4=CC(=O)CC[C@@H]4[C@H]3CC[C@@]21CC [Gestodene] | -29%
11 | CN(C)CCC[C@@]1(c2ccc(F)cc2)OCc2cc(C#N)ccc21 [Escitalopram] | 16%
12 | C=C1C(=O)O[C@@H]2/C=C(\C)CC/C=C(\C)CC[C@@H]12 [Costunolide] | 16%

Same assay, conditions: Schistosoma mansoni; Arecoline and analogs, 24h, D1, 1 µM; read-out: Fractional motility

Row | Compound | activity at 1 µM
13 | COC(=O)C1=CCCN(C)C1 [Arecoline] | -93%

Same assay, conditions: Schistosoma mansoni; schistosomulae, secondary screen, 24h exposure, read at D1, 1 µM; read-out: Fractional motility

Row | Compound | activity at 1 µM
14 | O=C1Cc2cc(CCN3CCN(c4nsc5ccccc45)CC3)c(Cl)cc2N1 [Ziprasidone] | 0.0588%
15 | C#C[C@]1(O)C=C[C@H]2[C@@H]3CCC4=CC(=O)CC[C@@H]4[C@H]3CC[C@@]21CC [Gestodene] | 51%
16 | CN(C)CCC[C@@]1(c2ccc(F)cc2)OCc2cc(C#N)ccc21 [Escitalopram] | 361%
17 | C=C1C(=O)O[C@@H]2/C=C(\C)CC/C=C(\C)CC[C@@H]12 [Costunolide] | -57%

Same assay, conditions: schistosomulae, 1h exposure, read at D1, 10 µM

Row | Compound | Fractional motility
18 | O=C1Cc2cc(CCN3CCN(c4nsc5ccccc45)CC3)c(Cl)cc2N1 [Ziprasidone] | 9.35
19 | COC(=O)C1=CCCN(C)C1 [Arecoline] | -0.93
20 | C=C1C(=O)O[C@@H]2/C=C(\C)CC/C=C(\C)CC[C@@H]12 [Costunolide] | -0.77

Same assay, conditions: schistosomulae, 1h exposure, read at D5, 10 µM

Row | Compound | Fractional motility
21 | O=C1Cc2cc(CCN3CCN(c4nsc5ccccc45)CC3)c(Cl)cc2N1 [Ziprasidone] | -0.16
22 | COC(=O)C1=CCCN(C)C1 [Arecoline] | -0.87
23 | C=C1C(=O)O[C@@H]2/C=C(\C)CC/C=C(\C)CC[C@@H]12 [Costunolide] | -0.29

Same assay, conditions: schistosomulae, 3h exposure, read at D1, 10 µM

Row | Compound | Fractional motility
24 | O=C1Cc2cc(CCN3CCN(c4nsc5ccccc45)CC3)c(Cl)cc2N1 [Ziprasidone] | 8.26
25 | COC(=O)C1=CCCN(C)C1 [Arecoline] | -0.70
26 | C=C1C(=O)O[C@@H]2/C=C(\C)CC/C=C(\C)CC[C@@H]12 [Costunolide] | 0.34

Same assay, conditions: schistosomulae, 3h exposure, read at D5, 10 µM

Row | Compound | Fractional motility
27 | O=C1Cc2cc(CCN3CCN(c4nsc5ccccc45)CC3)c(Cl)cc2N1 [Ziprasidone] | -0.06
28 | COC(=O)C1=CCCN(C)C1 [Arecoline] | -0.72
29 | C=C1C(=O)O[C@@H]2/C=C(\C)CC/C=C(\C)CC[C@@H]12 [Costunolide] | 1.03

Same assay, conditions: schistosomulae, 6h exposure, read at D1, 10 µM

Row | Compound | Fractional motility
30 | O=C1Cc2cc(CCN3CCN(c4nsc5ccccc45)CC3)c(Cl)cc2N1 [Ziprasidone] | 0.49
31 | COC(=O)C1=CCCN(C)C1 [Arecoline] | -0.86
32 | C=C1C(=O)O[C@@H]2/C=C(\C)CC/C=C(\C)CC[C@@H]12 [Costunolide] | 2.25

Same assay, conditions: schistosomulae, 6h exposure, read at D5, 10 µM

Row | Compound | Fractional motility
33 | O=C1Cc2cc(CCN3CCN(c4nsc5ccccc45)CC3)c(Cl)cc2N1 [Ziprasidone] | 0.31
34 | COC(=O)C1=CCCN(C)C1 [Arecoline] | -0.49
35 | C=C1C(=O)O[C@@H]2/C=C(\C)CC/C=C(\C)CC[C@@H]12 [Costunolide] | -0.56

Same assay, conditions: schistosomulae, after 24 h exposure

Row | Compound | motility phenotype in words
36 | COC(=O)C1=CCCN(C)C1 [Arecoline] | short term, pronounced paralysis

Same assay, conditions: schistosomulae, after 24 h incubation

Row | Compound | hypermotility relative to control
37 | O=C1Cc2cc(CCN3CCN(c4nsc5ccccc45)CC3)c(Cl)cc2N1 [Ziprasidone] | 11 ± 2 fold

Same assay, conditions: schistosomulae, long-term, five days after compound washout

Row | Compound | motility phenotype in words
38 | O=C1Cc2cc(CCN3CCN(c4nsc5ccccc45)CC3)c(Cl)cc2N1 [Ziprasidone] | all parasites became paralyzed

Same assay, conditions: schistosomulae, secondary screen, 24h exposure, read at D1, 1 µM

Row | Compound | Fractional motility
39 | COC(=O)C1=CCCN(C)C1 [Arecoline] | -0.93

Same assay, conditions: schistosomulae, secondary screen, 24h exposure, read at D1, 10 µM

Row | Compound | Fractional motility
40 | O=C1Cc2cc(CCN3CCN(c4nsc5ccccc45)CC3)c(Cl)cc2N1 [Ziprasidone] | 10.63
41 | C#C[C@]1(O)C=C[C@H]2[C@@H]3CCC4=CC(=O)CC[C@@H]4[C@H]3CC[C@@]21CC [Gestodene] | 4.27
42 | CN(C)CCC[C@@]1(c2ccc(F)cc2)OCc2cc(C#N)ccc21 [Escitalopram] | 5.42
43 | COC(=O)C1=CCCN(C)C1 [Arecoline] | -0.93
44 | C=C1C(=O)O[C@@H]2/C=C(\C)CC/C=C(\C)CC[C@@H]12 [Costunolide] | -0.92

Same assay, conditions: schistosomulae, secondary screen, 24h exposure, read at D5, 1 µM

Row | Compound | Fractional motility
45 | COC(=O)C1=CCCN(C)C1 [Arecoline] | 1.22

Same assay, conditions: schistosomulae, secondary screen, 24h exposure, read at D5, 10 µM

Row | Compound | Fractional motility
46 | O=C1Cc2cc(CCN3CCN(c4nsc5ccccc45)CC3)c(Cl)cc2N1 [Ziprasidone] | -1.00
47 | C#C[C@]1(O)C=C[C@H]2[C@@H]3CCC4=CC(=O)CC[C@@H]4[C@H]3CC[C@@]21CC [Gestodene] | -0.32
48 | CN(C)CCC[C@@]1(c2ccc(F)cc2)OCc2cc(C#N)ccc21 [Escitalopram] | 0.71
49 | COC(=O)C1=CCCN(C)C1 [Arecoline] | 1.49
50 | C=C1C(=O)O[C@@H]2/C=C(\C)CC/C=C(\C)CC[C@@H]12 [Costunolide] | -0.94

Same assay, conditions: three-day old schistosomulae, incubation 1 h, 3 h, 6 h

Row | Compound | motility in extended assay with reduced incubation times, in words
51 | O=C1Cc2cc(CCN3CCN(c4nsc5ccccc45)CC3)c(Cl)cc2N1 [Ziprasidone] | did not exhibit a significant change before the 24 hr incubation cut-off
52 | C=C1C(=O)O[C@@H]2/C=C(\C)CC/C=C(\C)CC[C@@H]12 [Costunolide] | did not exhibit a significant change before the 24 hr incubation cut-off

System: S. mansoni adult worms
Assay: Motility assay on adult parasites (pixel displacement, relative to DMSO control)
Type: cell-based, Schistosoma mansoni
Settings: Arecoline and analogs, 10 μM, D1, Female adult worms
Summary of the method: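 Unpaired adult worms from mice 6 weeks post-infection kept in OPTI-MEM with 5% dialyzed FBS and exposed to compounds at 1 and 10 μM for 24 h. Motility filmed 1 min at 10 frames/s, quantified by pixel displacement versus DMSO-treated worms; recovery followed up to five days after washout.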

Row | Compound | Fractional motility
53 | COC(=O)C1=CCCN(C)C1 [Arecoline] | -0.92

Same assay, conditions: Arecoline and analogs, 10 μM, D1, Male adult worms

Row | Compound | Fractional motility
54 | COC(=O)C1=CCCN(C)C1 [Arecoline] | -0.79

Same assay, conditions: Arecoline and analogs, 10 μM, D5, Female adult worms

Row | Compound | Fractional motility
55 | COC(=O)C1=CCCN(C)C1 [Arecoline] | -0.72

Same assay, conditions: Arecoline and analogs, 10 μM, D5, Male adult worms

Row | Compound | Fractional motility
56 | COC(=O)C1=CCCN(C)C1 [Arecoline] | -0.0374

Same assay, conditions: adults, after 24 h exposure

Row | Compound | motility phenotype in words
57 | COC(=O)C1=CCCN(C)C1 [Arecoline] | nearly complete paralysis

Same assay, conditions: secondary screen, 10 μM, D1, Female adult worms

Row | Compound | Fractional motility
58 | O=C1Cc2cc(CCN3CCN(c4nsc5ccccc45)CC3)c(Cl)cc2N1 [Ziprasidone] | 1.30
59 | C#C[C@]1(O)C=C[C@H]2[C@@H]3CCC4=CC(=O)CC[C@@H]4[C@H]3CC[C@@]21CC [Gestodene] | 1.24
60 | CN(C)CCC[C@@]1(c2ccc(F)cc2)OCc2cc(C#N)ccc21 [Escitalopram] | 2.54
61 | COC(=O)C1=CCCN(C)C1 [Arecoline] | -0.92
62 | C=C1C(=O)O[C@@H]2/C=C(\C)CC/C=C(\C)CC[C@@H]12 [Costunolide] | -0.10

Same assay, conditions: secondary screen, 10 μM, D1, Male adult worms

Row | Compound | Fractional motility
63 | O=C1Cc2cc(CCN3CCN(c4nsc5ccccc45)CC3)c(Cl)cc2N1 [Ziprasidone] | 0.47
64 | C#C[C@]1(O)C=C[C@H]2[C@@H]3CCC4=CC(=O)CC[C@@H]4[C@H]3CC[C@@]21CC [Gestodene] | 3.68
65 | CN(C)CCC[C@@]1(c2ccc(F)cc2)OCc2cc(C#N)ccc21 [Escitalopram] | 6.67
66 | COC(=O)C1=CCCN(C)C1 [Arecoline] | -0.79

Same assay, conditions: secondary screen, 10 μM, D5, Female adult worms

Row | Compound | Fractional motility
67 | O=C1Cc2cc(CCN3CCN(c4nsc5ccccc45)CC3)c(Cl)cc2N1 [Ziprasidone] | -0.12
68 | CN(C)CCC[C@@]1(c2ccc(F)cc2)OCc2cc(C#N)ccc21 [Escitalopram] | 0.95
69 | COC(=O)C1=CCCN(C)C1 [Arecoline] | -0.72
70 | C=C1C(=O)O[C@@H]2/C=C(\C)CC/C=C(\C)CC[C@@H]12 [Costunolide] | -0.83

Same assay, conditions: secondary screen, 10 μM, D5, Male adult worms

Row | Compound | Fractional motility
71 | O=C1Cc2cc(CCN3CCN(c4nsc5ccccc45)CC3)c(Cl)cc2N1 [Ziprasidone] | 0.73
72 | CN(C)CCC[C@@]1(c2ccc(F)cc2)OCc2cc(C#N)ccc21 [Escitalopram] | 0.26
73 | COC(=O)C1=CCCN(C)C1 [Arecoline] | -0.0374

System: S. mansoni schistosomulae
Assay: Phenotypic primary screen assay on schistosomulae (phenotype; viability by methylene blue dye exclusion)
Type: cell-based
Settings: Schistosoma mansoni; three-day-old schistosomulae, 10 μM, 24 h; calculated 5 days post compound exposure; read-out: Viability (%)

Row | Compound | viability at 10 µM
74 | O=C1Cc2cc(CCN3CCN(c4nsc5ccccc45)CC3)c(Cl)cc2N1 [Ziprasidone] | 2.5%
75 | C#C[C@]1(O)C=C[C@H]2[C@@H]3CCC4=CC(=O)CC[C@@H]4[C@H]3CC[C@@]21CC [Gestodene] | 98%
76 | CN(C)CCC[C@@]1(c2ccc(F)cc2)OCc2cc(C#N)ccc21 [Escitalopram] | 98%
77 | COC(=O)C1=CCCN(C)C1 [Arecoline] | 96.5%
78 | C=C1C(=O)O[C@@H]2/C=C(\C)CC/C=C(\C)CC[C@@H]12 [Costunolide] | 1.5%
